The values that follow come from patent publication US20140315889A1, “HYDROXAMATE DERIVATIVES FOR HDAC INHIBITOR, AND THE PHARMACEUTICAL COMPOSITION COMPRISING THEREOF” (CHONG KUN DANG PHARMACEUTICAL CORP., priority 2011, published 2014).

For one assay, the target named is T1, Human recombinant HDAC1 (Homo sapiens, UniProt Q13547).
T1 construct: purchased Enzo Life Science Co. (named for the kit; assigned to the enzyme from the BML- catalogue prefix) BML-SE456
In words: HDAC enzyme activity test, HDAC1. The assay is classed as biochemical. The conditions noted are these: Table 12; read-out: Inhibition ability (IC50) HDAC1. As to the method: (§1) Then, 0.3 μg of enzyme and 10 μM of substrate per well were added, reacted at 30° C. for 60 minutes. Thereto, Fluor de Lys® Developer II (BML-KI176) was added and reacted for 30 minutes. […] From the data, the respective IC50 were calculated by GraphPad Prism 4.0 program.

The target of a further assay is T2, human recombinant HDAC6 (Homo sapiens, UniProt Q9UBN7).
T2 construct: purchased Calibiochem Co. (so in the source) 382180
T2 sequence (Q9UBN7 1-1215): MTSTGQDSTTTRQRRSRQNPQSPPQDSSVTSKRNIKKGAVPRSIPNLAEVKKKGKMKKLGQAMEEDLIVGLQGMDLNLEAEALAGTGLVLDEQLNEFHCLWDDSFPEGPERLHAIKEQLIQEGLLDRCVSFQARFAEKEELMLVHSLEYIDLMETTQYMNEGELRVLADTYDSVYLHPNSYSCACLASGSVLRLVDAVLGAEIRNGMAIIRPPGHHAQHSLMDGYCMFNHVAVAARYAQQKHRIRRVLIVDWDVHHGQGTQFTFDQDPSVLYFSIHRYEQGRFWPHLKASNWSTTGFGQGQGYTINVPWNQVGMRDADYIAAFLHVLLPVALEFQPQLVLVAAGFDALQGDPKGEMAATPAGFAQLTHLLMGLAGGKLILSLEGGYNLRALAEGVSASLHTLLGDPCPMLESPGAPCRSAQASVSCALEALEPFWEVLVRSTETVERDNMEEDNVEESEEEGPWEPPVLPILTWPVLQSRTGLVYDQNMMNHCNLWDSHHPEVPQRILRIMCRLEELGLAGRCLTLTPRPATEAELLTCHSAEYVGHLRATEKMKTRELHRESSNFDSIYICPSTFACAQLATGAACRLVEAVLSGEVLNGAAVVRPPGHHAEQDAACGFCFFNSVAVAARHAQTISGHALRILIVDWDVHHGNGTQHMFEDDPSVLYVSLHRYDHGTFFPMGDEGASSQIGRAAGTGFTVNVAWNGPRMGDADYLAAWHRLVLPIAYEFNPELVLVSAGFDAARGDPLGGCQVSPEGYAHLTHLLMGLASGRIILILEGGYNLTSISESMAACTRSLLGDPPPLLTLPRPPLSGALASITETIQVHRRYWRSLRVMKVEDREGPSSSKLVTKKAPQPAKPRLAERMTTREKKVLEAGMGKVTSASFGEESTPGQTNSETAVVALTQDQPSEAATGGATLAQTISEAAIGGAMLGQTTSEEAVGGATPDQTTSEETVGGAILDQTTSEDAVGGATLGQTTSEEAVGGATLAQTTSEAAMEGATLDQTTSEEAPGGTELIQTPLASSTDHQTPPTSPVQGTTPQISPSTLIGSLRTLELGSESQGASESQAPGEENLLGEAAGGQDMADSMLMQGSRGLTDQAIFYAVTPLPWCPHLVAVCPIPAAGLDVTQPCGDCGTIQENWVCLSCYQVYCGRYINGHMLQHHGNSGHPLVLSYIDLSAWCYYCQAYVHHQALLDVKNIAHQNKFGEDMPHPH
The experiment in a line: HDAC enzyme activity test, HDAC6. The assay is classed as biochemical. The note with it: Table 12; for Selectivity for HDAC6, HD1/HD6: ratio HDAC1 IC50 / HDAC6 IC50; for IC50: read-out: Inhibition ability (IC50) HDAC6. As to the method:
as §1

T1 sequence (Q13547 whole entry): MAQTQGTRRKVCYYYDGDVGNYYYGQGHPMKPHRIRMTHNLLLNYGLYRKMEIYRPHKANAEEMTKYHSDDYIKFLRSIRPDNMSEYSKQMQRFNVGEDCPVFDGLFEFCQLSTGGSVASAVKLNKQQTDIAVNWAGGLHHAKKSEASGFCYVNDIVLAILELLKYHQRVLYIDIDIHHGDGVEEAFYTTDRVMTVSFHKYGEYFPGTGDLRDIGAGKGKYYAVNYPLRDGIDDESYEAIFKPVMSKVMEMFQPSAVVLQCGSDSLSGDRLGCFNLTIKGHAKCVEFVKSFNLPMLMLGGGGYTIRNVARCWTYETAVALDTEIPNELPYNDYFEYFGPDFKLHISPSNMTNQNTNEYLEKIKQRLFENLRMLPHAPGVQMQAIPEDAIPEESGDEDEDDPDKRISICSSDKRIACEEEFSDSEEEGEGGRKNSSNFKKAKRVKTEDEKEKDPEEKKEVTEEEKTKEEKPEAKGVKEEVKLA

`CCN1CCN(CC2CCc3c(c4cc(F)ccc4n3Cc3ccc(C(=O)NO)cc3)C2=O)CC1` (stereo not drawn) [Compound 189, 4-((3-((4-ethylpiperazin-1-yl)methyl)-6-fluoro-4-oxo-1,2,3,4-tetrahydrocarbazol-9-yl)methyl)-N-hydroxybenzamide]: on Human recombinant HDAC1, the IC50 (commonly the concentration that gives 50% inhibition) is 2.23 µM. Besides, at human recombinant HDAC6, the “Selectivity for HDAC6, HD1/HD6” value was 193.5 and the half-inhibitory concentration (IC50) is 0.0115 µM.

Consider `CCCCN1CCN(CC2CCc3c(c4cc(F)ccc4n3Cc3ccc(C(=O)NO)cc3)C2=O)CC1` (stereo not drawn) [Compound 190, 4-((3-((4-butylpiperazin-1-yl)methyl)-6-fluoro-4-oxo-1,2,3,4-tetrahydrocarbazol-9-yl)methyl)-N-hydroxybenzamide], for which the IC50 on Human recombinant HDAC1 was 2.25 µM. On human recombinant HDAC6, the “Selectivity for HDAC6, HD1/HD6” value worked out at 385.1 and the half-maximal inhibitory concentration (IC50) worked out at 0.0058 µM.

Regarding `CC(C)(O)CN1CCN(CC2CCc3c(c4cc(F)ccc4n3Cc3ccc(C(=O)NO)cc3)C2=O)CC1` (stereo not drawn) [Compound 191, 4-((6-fluoro-3-((4-(2-hydroxy-2-methylpropyl)piperazin-1-yl)methyl)-4-oxo-1,2,3,4-tetrahydrocarbazol-9-yl)methyl)-N-hydroxybenzamide], the half-inhibitory concentration (IC50) at Human recombinant HDAC1 is 8.28 µM. Also, on human recombinant HDAC6, the “Selectivity for HDAC6, HD1/HD6” value was 1115.6 and the concentration for half-maximal inhibition (IC50) is 0.0074 µM.

`Cc1nccn1CC1C(=O)c2c(n(Cc3ccc(C(=O)NO)cc3)c3ccc(F)cc23)CC1(C)C` (stereo not drawn) [Compound 192, 4-((6-fluoro-2,2-dimethyl-3-((2-methyl-1H-imidazol-1-yl)methyl)-4-oxo-1,2,3,4-tetrahydrocarbazol-9-yl)methyl)-N-hydroxybenzamide]: the IC50 at Human recombinant HDAC1 stood at 4.61 µM. For the same compound, at human recombinant HDAC6, the “Selectivity for HDAC6, HD1/HD6” value came to 2546.4 and the IC50 was found to be 0.0018 µM.

For the compound `O=C(CCCCCn1c2c(c3ccccc31)C(=O)C(CN1CCOCC1)CC2)NO` (stereo not drawn) [Compound 193, N-hydroxy-6-(3-(morpholinomethyl)-4-oxo-1,2,3,4-tetrahydrocarbazol-9-yl)hexanamide], at Human recombinant HDAC1, the IC50 was 3.5 µM. Moreover, on human recombinant HDAC6, the “Selectivity for HDAC6, HD1/HD6” value was found to be 464.3 and the concentration for half-maximal inhibition (IC50) was determined as 0.0075 µM.

For `Cc1nccn1CC1CCc2c(c3ccccc3n2CCCCCC(=O)NO)C1=O` (stereo not drawn) [Compound 194, N-hydroxy-6-(3-((2-methyl-1H-imidazol-1-yl)methyl)-4-oxo-1,2,3,4-tetrahydrocarbazol-9-yl)hexanamide], the half-maximal inhibitory concentration (IC50) on Human recombinant HDAC1 came out at 3.08 µM. For the same compound, at human recombinant HDAC6, the “Selectivity for HDAC6, HD1/HD6” value turned out to be 131.3 and the IC50 was found to be 0.0235 µM.

Take `O=C(CCCCCn1c2c(c3ccccc31)C(=O)C(CN1CCC(F)(F)C1)CC2)NO` (stereo not drawn) [Compound 204, 6-(3-((3,3-difluoropyrrolidin-1-yl)methyl)-4-oxo-1,2,3,4-tetrahydrocarbazol-9-yl)-N-hydroxyhexanamide]: the 50% inhibitory concentration (IC50) on Human recombinant HDAC1 was determined as 1.95 µM. On human recombinant HDAC6, the “Selectivity for HDAC6, HD1/HD6” value is 40 and the IC50 was determined as 0.0487 µM.

As for `CN1CCN(CC2CCc3c(c4ccccc4n3CCCCCC(=O)NO)C2=O)CC1` (stereo not drawn) [Compound 205, N-hydroxy-6-(3-((4-methylpiperazin-1-yl)methyl)-4-oxo-1,2,3,4-tetrahydrocarbazol-9-yl)hexanamide], the concentration for half-maximal inhibition (IC50) at Human recombinant HDAC1 worked out at 3.17 µM. In addition, on human recombinant HDAC6, the “Selectivity for HDAC6, HD1/HD6” value amounted to 69 and the IC50 was 0.046 µM.

On to `CCN1CCN(CC2CCc3c(c4ccccc4n3CCCCCC(=O)NO)C2=O)CC1` (stereo not drawn) [Compound 206, 6-(3-((4-ethylpiperazin-1-yl)methyl)-4-oxo-1,2,3,4-tetrahydrocarbazol-9-yl)-N-hydroxyhexanamide], for which the half-maximal inhibitory concentration (IC50) at Human recombinant HDAC1 turned out to be 1.2 µM. On human recombinant HDAC6, the “Selectivity for HDAC6, HD1/HD6” value stood at 43.5 and the 50% inhibitory concentration (IC50) came out at 0.0275 µM.

Take `CC1(C)Cc2c(c3cc(F)ccc3n2Cc2ccc(C(=O)NO)cc2)C(=O)C1CN1CCOCC1` (stereo not drawn) [Compound 207, 4-((6-fluoro-2,2-dimethyl-3-(morpholinomethyl)-4-oxo-1,2,3,4-tetrahydrocarbazol-9-yl)methyl)-N-hydroxybenzamide]: the figures for the IC50 at Human recombinant HDAC1 and on human recombinant HDAC6 were 1.82 µM and 0.0439 µM, respectively. For the same compound, at human recombinant HDAC6, the “Selectivity for HDAC6, HD1/HD6” value is reported as 41.5.

`CCCCN1CCN(CC2CCc3c(c4ccccc4n3CCCCCC(=O)NO)C2=O)CC1` (stereo not drawn) [Compound 208, 6-(3-((4-butylpiperazin-1-yl)methyl)-4-oxo-1,2,3,4-tetrahydrocarbazol-9-yl)-N-hydroxyhexanamide]: the 50% inhibitory concentration (IC50) on Human recombinant HDAC1 was found to be 0.284 µM; on human recombinant HDAC6, 0.0019 µM. Further, the “Selectivity for HDAC6, HD1/HD6” value at human recombinant HDAC6 is on record as 152.8.

With `CN1CCN(CC2C(=O)c3c(n(Cc4ccc(C(=O)NO)cc4)c4ccc(F)cc34)CC2(C)C)CC1` (stereo not drawn) [Compound 209, 4-((6-fluoro-2,2-dimethyl-3-((4-methylpiperazin-1-yl)methyl)-4-oxo-1,2,3,4-tetrahydrocarbazol-9-yl)methyl)-N-hydroxybenzamide], the concentration for half-maximal inhibition (IC50) on Human recombinant HDAC1 came out at 0.365 µM. On human recombinant HDAC6, the “Selectivity for HDAC6, HD1/HD6” value was 148.8 and the IC50 was determined as 0.0025 µM.

With `Cc1c2c(n(Cc3ccc(C(=O)NO)cc3)c1C)CCCC2=O` [Compound 220, 4-((2,3-dimethyl-4-oxo-4,5,6,7-tetrahydroindol-1-yl)methyl)-N-hydroxybenzamide], the half-maximal inhibitory concentration (IC50) at Human recombinant HDAC1 was 2.82 µM. Besides, on human recombinant HDAC6, the “Selectivity for HDAC6, HD1/HD6” value came to 643.1 and the IC50 came to 0.00439 µM.

For the compound `O=C(NO)c1ccc(Cn2c3c(c4ccccc42)C(=O)NCC3)cc1` [Compound 228, N-hydroxy-4-((1-oxo-1,2,3,4-tetrahydropyrido[4,3-b]indol-5-yl)methyl)benzamide], the IC50 at Human recombinant HDAC1 was determined as 3.53 µM. Also, at human recombinant HDAC6, the “Selectivity for HDAC6, HD1/HD6” value is recorded as 208.3 and the IC50 is 0.0169 µM.

`Cc1cn(Cc2ccc(C(=O)NO)cc2)c2c1C(=O)NCC2` [Compound 232, N-hydroxy-4-((3-methyl-4-oxo-4,5,6,7-tetrahydropyrrolo[3,2-c]pyridin-1-yl)methyl)benzamide]: the IC50 on Human recombinant HDAC1 worked out at 4.84 µM. In addition, at human recombinant HDAC6, the “Selectivity for HDAC6, HD1/HD6” value is on record as 107.4 and the half-inhibitory concentration (IC50) worked out at 0.045 µM.

For `Cc1c2c(n(CCCCCC(=O)NO)c1C)CCCC2=O` [Compound 235, 6-(2,3-dimethyl-4-oxo-4,5,6,7-tetrahydroindol-1-yl)-N-hydroxyhexanamide], the IC50 at Human recombinant HDAC1 turned out to be 1.31 µM. Besides, on human recombinant HDAC6, the “Selectivity for HDAC6, HD1/HD6” value is 34.9 and the 50% inhibitory concentration (IC50) turned out to be 0.0375 µM.

With `Cc1c2c(n(Cc3ccc(C(=O)NO)cc3)c1C)CC(C)(C)CC2=O` [Compound 236, N-hydroxy-4-((2,3,6,6-tetramethyl-4-oxo-4,5,6,7-tetrahydro-1H-indol-1-yl)methyl)benzamide], the half-inhibitory concentration (IC50) is 5.11 µM on Human recombinant HDAC1 and 0.0107 µM at human recombinant HDAC6. Further, at human recombinant HDAC6, the “Selectivity for HDAC6, HD1/HD6” value is 479.4.

`Cc1cn(Cc2ccc(C(=O)NO)cc2)c2c1C(=O)N(CCN1CCOCC1)CC2` [Compound 250, N-hydroxy-4-((3-methyl-5-(2-morpholinoethyl)-4-oxo-4,5,6,7-tetrahydropyrrolo[3,2-c]pyridin-1-yl)methyl)benzamide]: on Human recombinant HDAC1, the half-maximal inhibitory concentration (IC50) was found to be 2.72 µM. Further, at human recombinant HDAC6, the “Selectivity for HDAC6, HD1/HD6” value worked out at 20.5 and the IC50 stood at 0.133 µM.

Regarding `CN1CCN(CCN2CCc3c(c4ccccc4n3Cc3ccc(C(=O)NO)cc3)C2=O)CC1` [Compound 251, N-hydroxy-4-((2-(2-(4-methylpiperazin-1-yl)ethyl)-1-oxo-1,2,3,4-tetrahydropyrido[4,3-b]indol-5-yl)methyl)benzamide], the IC50 on Human recombinant HDAC1 is 1.45 µM. Also, at human recombinant HDAC6, the “Selectivity for HDAC6, HD1/HD6” value came to 820.3 and the 50% inhibitory concentration (IC50) was 0.00177 µM.

On to `O=C(NO)c1ccc(Cn2c3c(c4cc(F)ccc42)C(=O)N(CCN2CCOCC2)CC3)cc1` [Compound 266], for which the IC50 at Human recombinant HDAC1 was 2.91 µM; on human recombinant HDAC6 it was 0.00102 µM. In addition, on human recombinant HDAC6, the “Selectivity for HDAC6, HD1/HD6” value is 2851.

In the case of `O=C(NO)c1ccc(Cn2c3c(c4ccccc42)C(=O)N(CCN2CCC[C@H]2CO)CC3)cc1` [Compound 267, (S)—N-hydroxy-4-((2-(2-(2-(hydroxymethyl)pyrrolidin-1-yl)ethyl)-1-oxo-1,2,3,4-tetrahydropyrido[4,3-b]indol-5-yl)methyl)benzamide], the half-inhibitory concentration (IC50) on Human recombinant HDAC1 worked out at 2.27 µM. In addition, at human recombinant HDAC6, the “Selectivity for HDAC6, HD1/HD6” value worked out at 678.8 and the IC50 stood at 0.00335 µM.
